The text below walks through data of patent publication US8367328B2, “Method for synthesizing DNA” (Takara Bio Inc., priority 1998, dated 2013).

For this experiment, the target named is T1, Pfu DNA Polymerase II (Pyrococcus furiosus, UniProt P81409+P81412).
T1 construct: made in house; host or cells: Escherichia coli JM109/pFU1001 (FERM BP-5579)
T1 sequence (P81409 1-1263): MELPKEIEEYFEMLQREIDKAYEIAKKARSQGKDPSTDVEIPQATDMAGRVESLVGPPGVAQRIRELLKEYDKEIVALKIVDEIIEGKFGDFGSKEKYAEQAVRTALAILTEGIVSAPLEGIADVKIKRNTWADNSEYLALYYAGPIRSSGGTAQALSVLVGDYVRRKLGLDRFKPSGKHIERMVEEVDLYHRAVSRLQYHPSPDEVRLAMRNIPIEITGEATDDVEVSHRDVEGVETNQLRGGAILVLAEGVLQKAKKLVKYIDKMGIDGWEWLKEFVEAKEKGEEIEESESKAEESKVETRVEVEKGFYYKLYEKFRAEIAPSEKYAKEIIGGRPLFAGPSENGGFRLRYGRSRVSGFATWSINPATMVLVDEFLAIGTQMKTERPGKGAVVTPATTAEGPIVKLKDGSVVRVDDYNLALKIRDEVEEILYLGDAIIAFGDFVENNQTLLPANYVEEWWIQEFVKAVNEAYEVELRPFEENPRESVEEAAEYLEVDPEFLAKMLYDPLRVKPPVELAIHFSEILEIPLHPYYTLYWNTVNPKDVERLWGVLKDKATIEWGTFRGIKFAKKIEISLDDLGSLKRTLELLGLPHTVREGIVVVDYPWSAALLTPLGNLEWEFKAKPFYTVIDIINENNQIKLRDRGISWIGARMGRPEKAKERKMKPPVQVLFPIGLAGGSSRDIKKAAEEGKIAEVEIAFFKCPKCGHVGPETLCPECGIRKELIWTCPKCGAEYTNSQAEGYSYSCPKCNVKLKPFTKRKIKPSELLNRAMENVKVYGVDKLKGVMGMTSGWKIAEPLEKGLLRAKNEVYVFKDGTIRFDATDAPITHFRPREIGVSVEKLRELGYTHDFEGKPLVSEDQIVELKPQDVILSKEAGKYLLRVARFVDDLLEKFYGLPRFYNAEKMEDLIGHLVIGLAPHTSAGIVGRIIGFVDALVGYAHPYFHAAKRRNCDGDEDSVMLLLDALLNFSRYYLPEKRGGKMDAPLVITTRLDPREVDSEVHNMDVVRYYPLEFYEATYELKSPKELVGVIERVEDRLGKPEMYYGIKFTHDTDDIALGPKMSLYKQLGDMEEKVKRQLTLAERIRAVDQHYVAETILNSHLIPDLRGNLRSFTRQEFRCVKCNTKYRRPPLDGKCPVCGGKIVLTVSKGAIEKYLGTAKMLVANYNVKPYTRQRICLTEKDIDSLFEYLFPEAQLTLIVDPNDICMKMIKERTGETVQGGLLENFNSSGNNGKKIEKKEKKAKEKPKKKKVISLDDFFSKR
T1 sequence (P81412 1-613): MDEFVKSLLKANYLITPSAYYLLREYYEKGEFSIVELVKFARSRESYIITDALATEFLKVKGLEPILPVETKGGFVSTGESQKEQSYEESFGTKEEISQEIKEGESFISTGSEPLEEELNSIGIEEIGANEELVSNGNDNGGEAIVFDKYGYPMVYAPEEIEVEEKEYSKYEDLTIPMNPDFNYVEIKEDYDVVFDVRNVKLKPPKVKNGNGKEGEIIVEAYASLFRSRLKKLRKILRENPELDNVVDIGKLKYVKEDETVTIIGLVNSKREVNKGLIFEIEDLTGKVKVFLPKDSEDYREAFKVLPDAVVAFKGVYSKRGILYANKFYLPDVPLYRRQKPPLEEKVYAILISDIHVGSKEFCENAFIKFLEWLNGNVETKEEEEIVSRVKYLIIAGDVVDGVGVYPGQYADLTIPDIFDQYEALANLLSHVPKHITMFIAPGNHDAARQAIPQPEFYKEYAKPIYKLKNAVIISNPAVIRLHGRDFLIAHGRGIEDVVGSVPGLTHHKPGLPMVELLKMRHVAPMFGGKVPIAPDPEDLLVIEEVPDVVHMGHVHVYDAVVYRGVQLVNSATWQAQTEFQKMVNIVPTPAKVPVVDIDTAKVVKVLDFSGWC
The experiment in a line: PCR with Pfu DNA Polymerase II in the presence of acidic substances (λDNA template). The experiment is classed as biochemical. On the procedure: A reaction mixture comprising λDNA as a template, primers λ1 and λ3 as a primer pair, and Pfu DNA Polymerase II as DNA polymerase was prepared, and PCR was carried out. The composition of the reaction mixture is as follows.
10 mM Tris-hydrochloric acid (pH 9.2), 75 mM potassium chloride, 6 mM magnesium chloride, 0.4 mM each of dATP, dCTP, dGTP and dTTP, 0.01% BSA, 1.25 U of Pfu DNA Polymerase II, 500 pg of λDNA, and 5 pmol each of primers λ1 and λ3 (a final volume being 25 μl). […]
Using the sulfated-fucose-containing Polysaccharide-F obtained in Example 6 described above, dextran sulfate powder (manufactured by Onco), or sodium alginate (100 to 150 centipoises, manufactured by Wako Pure Chemicals), the effects of these acidic substances on the activity of Pfu DNA Polymerase II were examined. A reaction mixture comprising λDNA as a template, primers λ1 and λ2 as a primer pair, and Pfu DNA Polymerase II as DNA polymerase was prepared, and PCR was carried out. The composition of the reaction mixture is as follows.
10 mM Tris-hydrochloric acid, pH 9.2, 75 mM potassium chloride, 6 mM magnesium chloride, 0.4 mM each of dATP, dCTP, dGTP and dTTP, 0.01% BSA, 1.25 U of Pfu DNA Polymerase II, 100 pg of λDNA, and 5 pmol each of primers λ1 and λ2 (a final volume being 25 μl). Further, 10 ng of the sulfated-fucose-containing polysaccharide-F, 10 ng of dextran sulfate powder, or 1 μg of sodium alginate was respectively added to the above reaction mixture.
The reaction in 25 cycles was carried out for each of these reaction mixtures, wherein one cycle of reaction comprises a process consisting of 98° C., 5 seconds—66° C., 15 seconds. Thereafter, 5 μl of the resulting reaction mixture was subjected to electrophoresis on 1% agarose gel containing ethidium bromide in an amount of 0.00005%, whereby an amplified fragment was confirmed.
Further, studies were conducted on the effects of the sulfated-fucose-containing polysaccharide-F obtained in Example 6 described above, the sulfated-fucose-containing polysaccharide-U obtained in Example 7 described above, or sodium polyglutamate (manufactured by Sigma) as an acidic substance. A reaction mixture for PCR was prepared in the same manner as described above except for changing the amount of template λDNA to 500 pg and the primer pairs to primers λ1 and λ3. Five nanograms of the sulfated-fucose-containing polysaccharide-F, 5 ng, 10 ng, 20 ng or 30 ng each of the sulfated-fucose-containing polysaccharide-U, or 250 ng, 500 ng, 750 ng or 1000 ng each of sodium polyglutamate was respectively added to the above reaction mixture.
The reaction was carried out in 30 cycles, wherein one cycle of reaction comprises a process consisting of 98° C., 5 seconds—66° C., 15 seconds. After the termination of the reaction, 5 μl of the resulting reaction mixture was subjected to electrophoresis on 1% agarose gel containing ethidium bromide in an amount of 0.00005%, whereby an amplified fragment was confirmed.
Using the sulfated-fucose-containing polysaccharide-F obtained in Example 6 described above, the effects on the activity of Pfu DNA Polymerase II were examined. A reaction mixture comprising λDNA as a template, primers λ1 and λ2 as a primer pair, and Pfu DNA Polymerase II as DNA polymerase was prepared, and PCR was carried out. The composition of the reaction mixture is as follows.
10 mM Tris-hydrochloric acid, pH 9.2, 75 mM potassium chloride, 6 mM magnesium chloride, 0.4 mM each of dATP, dCTP, dGTP and dTTP, 0.01% BSA, 1.25 U of Pfu DNA Polymerase II, 500 pg of λDNA, and 5 pmol each of primers λ1 and λ2 (a final volume being 25 μl). Further, 10 ng of the sulfated-fucose-containing polysaccharide-F was respectively added to the above reaction mixture.
The reaction in 30 cycles was carried out for each of these reaction mixtures, wherein one cycle of reaction comprises a process consisting of 98° C., 5 seconds—66° C., 15 seconds. […]

In the case of sodium polyglutamate, the “Amplification Results” value by setting is: (1 kb fragment, 500 pg λDNA, primers λ1/λ3, 30 cycles 98°C 5 s–66°C 15 s, amount added 250 ng) “+ (Amplification being observed)”; (1 kb fragment, 500 pg λDNA, primers λ1/λ3, 30 cycles 98°C 5 s–66°C 15 s, amount added 500 ng) “+ (Amplification being observed)”; (1 kb fragment, 500 pg λDNA, primers λ1/λ3, 30 cycles 98°C 5 s–66°C 15 s, amount added 750 ng) “++ (Intensive amplification being observed)”; (1 kb fragment, 500 pg λDNA, primers λ1/λ3, 30 cycles 98°C 5 s–66°C 15 s, amount added 1000 ng) “+ (Amplification being observed)”.
For “dextran sulfate [Dextran Sulfate Powder]”, the “Amplification Results” value (0.5 kb fragment, 100 pg λDNA, primers λ1/λ2, 25 cycles 98°C 5 s–66°C 15 s, amount added 10 ng) is given as “+ (Amplification being observed)”.
